Experimental data as given in patent publication US7229985B2, “Amorphous substance of tricyclic triazolobenzazepine derivative” (Meiji Seika Kaisha, Ltd., priority 2001, dated 2007).
Values after ≈ are worked out from the molar mass of the structure shown.

Assays:
[1] = Dissoluvability Test (1): solubility in water or 1 wt % aqueous methylcellulose solution at 37° C.; format: physicochemical
Procedure: Water or a 1 wt % aqueous methylcellulose solution was provided as a test liquid, and solubility of various samples in the test liquid was examined. Each sample in an amount of about 100 mg in terms of compound A was added to 500 mL of the test liquid kept at 37° C., and the mixture was stirred with a paddle at 200 rpm. Sampling was carried out at predetermined time intervals, and the samples were filtered through a membrane filter (Sumplep LCR 13-LG, manufactured by Millipore Corporation). The concentration of compound A in each of the filtrates was analyzed by HPLC.
In Test Example 2, HPLC was carried out under the following measuring conditions.
Detector: Ultraviolet absorptiometer (measuring wavelength: 240 nm)
Column: Inertsil ODS 2 4.6×250 mm in which a stainless tube having an inner diameter of 4.6 mm and a length of 25 cm was packed with a 5-μm octadecylsilyl silica gel for liquid chromatography.
Column temp.: Around 40° C.
Mobile phase: 0.1 wt % ammonium acetate:methanol (45:55)

[2] = Absorption Test: oral administration, plasma compound B concentration; format: in vivo, beagles
Procedure: The sample produced in Comparative Example 1 or Example 1 was suspended in a 1 wt % aqueous methylcellulose solution. The suspension was administered orally to beagles (n=6) which had been subjected to fasting overnight. The difference in absorption among the samples was evaluated by comparing the area under the plasma drug concentration-time curve (AUC).
The plasma drug concentration in the collected blood was quantitatively determined according roughly to the following method.
Blood (about 0.7 mL) collected from the cephalic vein was centrifuged (4° C., about 9000×g, 10 min) in the presence of heparin to obtain plasma. Methanol (400 μL) and an internal standard substance solution (sodium salt of 7-methyl-4(5H),10-dioxo-2H-1,2,3-triazolo[4,5-c][1]benzazepine, 100 ng/mL, 100 μL) were added to the plasma (100 μL), and the mixture was stirred and centrifuged (4° C., about 9000×g, 10 min).
The supernatant was evaporated to dryness at room temperature under a nitrogen gas stream, and 150 μL of a mixed solution composed of a 10 mmol/L phosphate buffer (pH 7.0) and a methanol (8:2) was added to the residue for redissolution. The solution was then filtered by a centrifugal filter (Centricut Ultra-Mmini (KURABO INDUSTRIES LTD.), 4° C., about 9000×g, 10 min), and the filtrate was analyzed as a sample by HPLC. […]
Fluorescence detection wavelength: Ex 270 nm, Em 466 nm (GAIN=100, response=standard) […]

[3] = Solubility in methylene chloride; format: physicochemical
[4] = Oral absorption of pulverized crystal; format: in vivo; conditions: orally administered to dogs
Procedure: In addition, an experiment in which a pulverized crystal of crystalline compound A is prepared according to the description of Japanese Patent Laid-Open No. 185013/1987 disclosing a drug, which has been rendered easily absorbable by pulverizing was carried out. The treated drug is orally administered to experimental animals such as dogs.

[5] = Solubility in glycerin, propylene glycol, Macrogol 400 and the like; format: physicochemical
[6] = test liquid 1 wt % aqueous methylcellulose solution, 37° C. (FIG. 3)
[7] = test liquid water, 37° C., about 100 mg in 500 mL, paddle 200 rpm (FIG. 2), level reached

Compound | solubility ([1]; 1 wt % aqueous methylcellulose solution, aqueous with cosolvent or surfactant or cyclodextrin, thermodynamic from solid, in a 1 wt % methylcellulose solution at 37° C.) [µg/mL] | time for which concentration of dissolution was maintained ([1]; test liquid 1 wt % aqueous methylcellulose solution, 37° C.) [h] | concentration of dissolution [1, 6] | concentration of dissolution [1, 7] | concentration of dissolution after lowering ([1]; test liquid water, 37° C., value to which the concentration then lowered (FIG. 2)) | plasma compound B concentration over time versus crystalline compound of Comparative Example 1 ([2]; beagles, dose one-eighth of the dose of the crystalline compound) | plasma compound B concentration versus crystalline compound of Comparative Example 1 ([2]; suspension in 1 wt % aqueous methylcellulose, fasted beagles (FIG. 5)) | solubility in methylene chloride [3] | improvement in absorption [4] | solubility in glycerin, propylene glycol, Macrogol 400 and the like [5]
COc1cc2[nH]c(=O)c3nn(C(OC(=O)OC(C)C)C(C)C)nc3c(=O)c2cc1OC (stereo not drawn) [Example 1, 2-(1-isopropoxycarbonyloxy-2-methylpropyl)-7,8-dimethoxy-4(5H), 10-dioxo-2H-1,2,3-triazolo[4,5-c][1]benzazepine] | 15 to 20 (≈ 34.7 to 46.2 µM) | 4 | not less than 18 μg/mL | about 5 μg/mL | about 3 μg/mL | much higher | significantly higher | – | – | –
COc1cc2[nH]c(=O)c3nn(C(OC(=O)OC(C)C)C(C)C)nc3c(=O)c2cc1OC (stereo not drawn) [Comparative Example 1, 2-(1-Isopropoxycarbonyloxy-2-methylpropyl)-7,8-dimethoxy-4(5H), 10-dioxo-2H-1,2,3-triazolo[4,5-c][1]benzazepine] | – | – | not more than 1 μg/mL | not more than 1 μg/mL | – | – | – | about 1 % by weight | not more than expected | not on such a level that can make crystalline compound A pharmaceutically usable
